# Source: patent publication US20040235939A1, “Synthesis of peloruside a and analogs thereof for use as antitumor agents” (priority 2003, published 2004)
# Read-outs that look alike come from different tables or passages of the source.
# Legend:
# HeLa cells = assay: Cell viability of HeLa cells treated with Peloruside analogs; format: cell-based, human; conditions: 10 to 1000 nM
# Protocol: (§1) Cells were treated with medium, DMSO, LX3111 or LX3136 at a final concentration of 10, 50, 100, 200, 300, 400, 500, 600, 800 or 1000 nM. Cell viability was measured by counting surviving cells or measuring luminescence at 48 hours after drug treatment using the Cell Titer-Glo Luminescent Cell Viability Assay (Promega).
# SK-MEL-5 cells = assay: Cell viability of SK-MEL-5 cells treated with Peloruside analogs; format: cell-based, human; conditions: SK-MEL-5, 10 to 1000 nM
# Protocol: as §1
# SK-MEL-5 = assay: Growth of cultured human tumor cell line SK-MEL-5; format: cell-based; conditions: SK-MEL-5, up to 10 μM
# HeLa = assay: Growth of cultured human tumor cell line HeLa; format: cell-based; conditions: up to 10 μM
# [1] = tested on: Tubulin, purified from bovine brains; assay: Tubulin polymerization in vitro; format: biochemical
# Protocol: Tubulin, purified from bovine brains and prepared in PEM-buffer (80 mM PIPES, 0.5 mM MgCl2, 1 mM EGTA, pH 6.9) was thawed under vacuum on ice. Tubulin was incubated at 37° C. until almost melted and resuspended to a final concentration of 2 mg/ml and placed on ice. Peloruside A or Taxol® was added into transparent 96-well plates (Coming Incorp. Costar) and placed on ice. GTP (Sigma) was added to a final concentration of 1 mM. The 96 well plate was warmed to 37° C. and 120 μl of tubulin solution was added into each well. The absorbance of the reaction at 340 nm over time (each 40-50 sec.) was measured on the spectrophotometer TECAN SPECTRAFluor Plus. Peloruside A or Taxol® was added to the tubulin at a final concentration of 5 or 10 μM.
Compound,inhibition of cell growth (antimitotic activity) (HeLa cells),inhibition of cell growth (antimitotic activity) (SK-MEL-5 cells),effect on the growth of cultured human tumor cell line (SK-MEL-5),effect on the growth of cultured human tumor cell line (SK-MEL-5; listed as (−)-Peloruside A),effect on the growth of cultured human tumor cell line (HeLa),effect on the growth of cultured human tumor cell line (HeLa; listed as (−)-Peloruside A),polymerization of tubulin dimers into microtubule polymers (microtubule-stabilizing activity) [1],polymerization of tubulin dimers into microtubule polymers (microtubule-stabilizing activity) ([1]; listed as (−)-Peloruside A)
CC[C@H](/C=C(/C)C1C[C@@H](OC)CC(O)C(C)(C)C2(O)OC(C[C@@H](OC)C2O)C[C@@H](OC)[C@H](OCOC)C(=O)O1)CO (stereo partly shown) [LX3136],potent antimitotic activity,potent antimitotic activity,,,,,,
CC[C@H](/C=C(/C)C1C[C@H](OC)CC(O)C(C)(C)C2(O)OC(C[C@@H](OC)C2O)C[C@@H](OC)[C@H](O)C(=O)O1)CO (stereo partly shown) [LX3111],potent antimitotic activity,potent antimitotic activity,,,,,,
(−)-Peloruside A [Compound 40],,,no effect on the growth,inactive,no effect on the growth,inactive,did not polymerize tubulin dimers into microtubule polymers,biologically inactive
